# In PubChem BioAssay (NCI):
# Several values for one entry are separate records, joined by “and”; a condition that tells them apart may be missing. Equal values may be shown once.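 Grown in 96-well plates, cells were treated for 48 hours with each compound at five concentrations. Insufficient inhibition: endpoint recorded as highest concentration tested. At the GI50, growth is halved. TGI marks complete inhibition of growth.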
# How the values were obtained:
# Experiment in all cases: growth of human tumour cells (NCI), 48 h
# TK-10 renal = system: TK-10 renal
# MALME-3M melanoma = system: MALME-3M melanoma
# K-562 leukemia = system: K-562 leukemia
# U251 CNS = system: U251 CNS
# CAKI-1 renal = system: CAKI-1 renal
# SK-MEL-5 melanoma = system: SK-MEL-5 melanoma
# M14 melanoma = system: M14 melanoma
# A549 NSCLC = system: A549 NSCLC
# HT29 colon = system: HT29 colon
# HOP-92 NSCLC = system: HOP-92 NSCLC
Compound,TGI (TK-10 renal),TGI (MALME-3M melanoma),TGI (K-562 leukemia) [µM],TGI (U251 CNS),TGI (CAKI-1 renal),TGI (SK-MEL-5 melanoma),TGI (M14 melanoma) [µM],TGI (A549 NSCLC) [µM],TGI (HT29 colon),TGI (HOP-92 NSCLC),GI50 (TK-10 renal) [µM],GI50 (MALME-3M melanoma) [µM],GI50 (K-562 leukemia) [nM],GI50 (U251 CNS) [µM],GI50 (CAKI-1 renal) [nM],GI50 (SK-MEL-5 melanoma) [µM],GI50 (M14 melanoma) [nM],GI50 (A549 NSCLC) [nM],GI50 (HT29 colon) [nM],GI50 (HOP-92 NSCLC) [nM]
O=C(c1ccccc1)C1CCCCN1C(=O)c1ccccc1 (stereo not drawn),> 100 µM,> 100 µM,> 100,> 100 µM,> 100 µM,> 100 µM,> 100,> 100,,,,,,,,,,,,
CC12N=NN(c3ccc([N+](=O)[O-])cc3)C1(O)c1ccccc1C2=O (stereo not drawn),> 100 µM,> 100 µM,,> 100 µM,,> 100 µM,> 100,> 100,> 100 µM,,,,,,,,,,,
C=CC1[C@H]2COC(C)(C)O[C@@H]2CC(=O)C1(C)C (stereo partly drawn),> 100 µM,> 100 µM,,> 100 µM,> 100 µM,,> 100,> 100,> 100 µM,> 100 µM,,,,,,,,,,
O=[N+]([O-])c1ccc(S(=O)Cc2ccccc2)c([N+](=O)[O-])c1 (stereo not drawn),3.16 µM,3.26 µM,6.65,24.3 µM,3.85 µM,21.1 µM,4.84,36.3,,,1.78,1.62,2560,11.4,1850,9.08,1810,16300,,
CCCCc1c2c(nc3c1CCc1cc4cc5c(nc4nc1-3)-c1nc3c(c(CCCC)c1CC5)CCCC3)CCCC2,> 100 µM,> 100 µM,> 100,> 100 µM,,,> 100,> 100,31.5 µM,,,,,,,,,,,
O=C1c2ccc([N+](=O)[O-])cc2-c2c1c1ccccc1c(=O)n2CCCNCCCNCCCn1c2c(c3ccc([N+](=O)[O-])cc3c1=O)C(=O)c1ccccc1-2,33.9 µM,41.7 µM,1.97,15.3 µM,20.8 µM,20.9 µM,33.9,> 40.8,1.48 µM,,5.32,5.51,539,3.42,3330,3.07,13600,2690,182,
CCc1cccc(C(C)C)c1NC(=O)C(=O)CC(=O)c1c(C)n([O-])c2ccccc2[n+]1=O,> 100 µM,> 100 µM,> 100,> 100 µM,> 100 µM,> 100 µM,> 100,> 100,,> 100 µM,,,,,,,,,,
CC[C@@]1(O)C[C@H](OC2CC(N(C)C)C(OC3CC(O)C(OC4CCC(=O)C(C)O4)C(C)O3)C(C)O2)c2c(cc3c(c2O)C(=O)c2c(O)cccc2C3=O)[C@H]1C(=O)OC (stereo partly drawn),0.932 µM and 0.373 µM,0.0991 µM and 0.128 µM,,2.11 µM and 2.49 µM,0.179 µM and 0.373 µM,0.0592 µM and 0.164 µM,0.149,,0.903 µM and 0.318 µM,0.129 µM and 0.161 µM,,,,,,,,,,
COc1ccccc1N=C(N)N/N=C/c1c[nH]c2ccccc12,30.9 µM,8.19 µM,11.6,24.2 µM,26.7 µM,8.91 µM,10.5,26.6,14.9 µM,,,,,,,,,,,
CCOC(=O)C1=C(C(=O)c2ccc(C)cc2)C(c2cccc([N+](=O)[O-])c2)C(C(=O)c2ccc(C)cc2)=C(C(=O)OCC)N1,43.2 µM,66.4 µM,57.9,25.8 µM,43.5 µM,33.1 µM,32.9,66.1,28.7 µM,,,,,,,,,,,
CC(C)=CCC/C(C)=C/CC/C(C)=C/Cc1c(O)c2ccccc2oc1=O,> 100 µM,> 100 µM,> 100,> 100 µM,,,> 100,> 100,> 100 µM,> 100 µM,,,,,,,,,,
COc1cc2c(c(OC)c1OC)-c1ccc(N)c(=O)cc1[C@@H](NC(C)=O)CC2,> 100 µM,> 100 µM,> 100,> 100 µM,> 47.2 µM,,,> 100,0.0688 µM,> 100 µM,0.0852,48.8,< 14,0.0302,1420,,20.8,56.3,< 15.9,40.9
Cc1ccc(-c2cc(-c3ccco3)c(C#N)c(=O)[nH]2)cc1,> 100 µM,> 100 µM,> 100,> 100 µM,,> 100 µM,> 100,> 100,> 100 µM,> 100 µM,,,,,,,,,,
Cc1c(S(C)(=O)=O)c(-c2cc(F)cc(N3CCN(c4ccc(NS(=O)(=O)c5ccc(N[C@H](CCN6CCC(C(=O)OCCCP(=O)(O)O)CC6)CSc6ccccc6)c(S(=O)(=O)C(F)(F)F)c5)cc4)CC3)c2)c(-c2ccc(Cl)cc2)n1C(C)C,> 100 µM,> 100 µM,,> 100 µM,> 100 µM,> 100 µM,> 100,> 100,> 100 µM,0.952 µM,25.8,> 100,,> 100,> 100000,> 100,> 100000,> 100000,> 100000,79.4
CCCCCCCCCCCCCCN,> 100 µM,> 100 µM,> 100,> 100 µM,> 100 µM,> 100 µM,,,> 100 µM,> 100 µM,,,,,,,,,,
O=C(Nc1cccc([N+](=O)[O-])c1)C(=O)C(C(=O)c1ccccc1-c1ccccc1)C1OC(=O)c2ccccc21 (stereo not drawn),61.5 µM,34.5 µM,> 100,27.7 µM,,30.7 µM,41.1,82.7,> 100 µM,32.8 µM,,,,,,,,,,
Cn1nc(-c2ccccc2)c(C(=O)/C=C/c2ccc(F)cc2)c(N2CCCCC2)c1=O,69.9 µM,,13,27.7 µM,27.3 µM,19.7 µM,28.6,55.1,20.2 µM,20 µM,,,,,,,,,,
O=C(O)C1C2CCC(O2)C1C(=O)N1CCCCC1 (stereo not drawn),8.42 µM,23.6 µM,,17 µM,,29.7 µM,26.2,> 100,15.1 µM,7.33 µM,,,,,,,,,,
O=C(/C=C/C12c3ccccc3C(c3ccccc31)C1C(=O)N(c3ccccc3)C(=O)C12)c1ccccc1 (stereo not drawn),> 100 µM,,> 100,9.44 µM,> 100 µM,6.21 µM,10.1,> 100,> 100 µM,3.75 µM,6.22,,1390,2.48,1500,2.29,2510,2580,2690,1260
